Experimental data as given in ChEMBL document CHEMBL3774317, “Design and synthesis of novel tamoxifen analogues that avoid CYP2D6 metabolism” (Eur J Med Chem, 2016).

Tests used:
[1] = test system: SK-MEL-28; experiment: Cytotoxicity against human SK-MEL-28 cells assessed as growth inhibition after 48 hrs by SRB assay; format: functional; conditions: SK-MEL-28, 48 h
[2] = test system: MDA-MB-231; experiment: Cytotoxicity against human MDA-MB-231 cells assessed as growth inhibition after 48 hrs by SRB assay; format: functional; conditions: MDA-MB-231, 48 h
[3] = Cytotoxicity against human UO31 cells assessed as growth inhibition after 48 hrs by SRB assay; format: functional; conditions: UO-31, 48 h
[4] = test system: NCI-H226; experiment: Cytotoxicity against human NCI-H226 cells assessed as growth inhibition after 48 hrs by SRB assay; format: functional; conditions: NCI-H226, 48 h
[5] = test system: T47D; experiment: Cytotoxicity against human T47D cells assessed as growth inhibition after 48 hrs by SRB assay; format: functional
[6] = test system: MCF7; experiment: Antiproliferative activity against human MCF7 cells after 72 hrs by MTT assay; conditions: mcf7
[7] = test system: MCF7; experiment: Cytotoxicity against human MCF7 cells assessed as growth inhibition after 48 hrs by SRB assay; format: functional; conditions: MCF7, 48 h
[8] = Cytotoxicity against human SNB19 cells assessed as growth inhibition after 48 hrs by SRB assay; format: functional; conditions: SNB-19, 48 h
[9] = test system: 786-0; experiment: Cytotoxicity against human 786-0 cells assessed as growth inhibition after 48 hrs by SRB assay; format: functional; conditions: 786-0, 48 h
[10] = Cytotoxicity against human IGROV1 cells assessed as growth inhibition after 48 hrs by SRB assay; format: functional; conditions: IGROV-1, 48 h
[11] = test system: Malme-3M; experiment: Cytotoxicity against human MALME-3M cells assessed as growth inhibition after 48 hrs by SRB assay; format: functional
[12] = Cytotoxicity against human SF268 cells assessed as growth inhibition after 48 hrs by SRB assay; format: functional; conditions: SF-268, 48 h
[13] = test system: NCI-H460; experiment: Cytotoxicity against human NCI-H460 cells assessed as growth inhibition after 48 hrs by SRB assay; format: functional; conditions: NCI-H460, 48 h
[14] = test system: MDA-MB-435; experiment: Cytotoxicity against human MDA-MB-435 cells assessed as growth inhibition after 48 hrs by SRB assay; format: functional; conditions: MDA-MB-435, 48 h
[15] = Cytotoxicity against human SNB75 cells assessed as growth inhibition after 48 hrs by SRB assay; format: functional; conditions: SNB-75, 48 h
[16] = Cytotoxicity against human NCI-ADR-RES cells assessed as growth inhibition after 48 hrs by SRB assay; format: functional
[17] = Cytotoxicity against human BT549 cells assessed as growth inhibition after 48 hrs by SRB assay; format: functional; conditions: BT-549, 48 h
[18] = test system: KM12; experiment: Cytotoxicity against human KM12 cells assessed as growth inhibition after 48 hrs by SRB assay; format: functional; conditions: KM12, 48 h
[19] = Cytotoxicity against human DU145 cells assessed as growth inhibition after 48 hrs by SRB assay; format: functional; conditions: DU-145, 48 h
[20] = Cytotoxicity against human HOP62 cells assessed as growth inhibition after 48 hrs by SRB assay; format: functional; conditions: HOP-62, 48 h
[21] = Cytotoxicity against human Hs 578T cells assessed as growth inhibition after 48 hrs by SRB assay; format: functional
[22] = Cytotoxicity against human SW620 cells assessed as growth inhibition after 48 hrs by SRB assay; format: functional; conditions: SW-620, 48 h
[23] = Cytotoxicity against human PC3 cells assessed as growth inhibition after 48 hrs by SRB assay; format: functional; conditions: PC-3, 48 h
[24] = test system: HT-29; experiment: Cytotoxicity against human HT-29 cells assessed as growth inhibition after 48 hrs by SRB assay; format: functional; conditions: HT-29, 48 h
[25] = test system: SK-MEL-5; experiment: Cytotoxicity against human SK-MEL-5 cells assessed as growth inhibition after 48 hrs by SRB assay; format: functional; conditions: SK-MEL-5, 48 h
[26] = Cytotoxicity against human RXF393 cells assessed as growth inhibition after 48 hrs by SRB assay; format: functional; conditions: RXF 393, 48 h
[27] = Cytotoxicity against human SF295 cells assessed as growth inhibition after 48 hrs by SRB assay; format: functional; conditions: SF-295, 48 h
[28] = Cytotoxicity against human OVCAR3 cells assessed as growth inhibition after 48 hrs by SRB assay; format: functional; conditions: OVCAR-3, 48 h
[29] = test system: SR; experiment: Cytotoxicity against human SR cells assessed as growth inhibition after 48 hrs by SRB assay; format: functional
[30] = Cytotoxicity against human OVCAR5 cells assessed as growth inhibition after 48 hrs by SRB assay; format: functional; conditions: OVCAR-5, 48 h
[31] = Cytotoxicity against human OVCAR8 cells assessed as growth inhibition after 48 hrs by SRB assay; format: functional; conditions: OVCAR-8, 48 h
[32] = test system: A549; experiment: Cytotoxicity against human A549 cells assessed as growth inhibition after 48 hrs by SRB assay; format: functional; conditions: A549, 48 h
[33] = test system: CCRF-CEM; experiment: Cytotoxicity against human CCRF-CEM cells assessed as growth inhibition after 48 hrs by SRB assay; format: functional
[34] = read-out: LC50 (the source's name)

C/C(=C(/c1ccc(O)cc1)c1ccc(OCCN2CCCC2)cc1)c1ccccc1
GI50 [1]: 1.65 µM | LC50 (concentration killing 50% of starting cells) [1]: 7.05 µM | TGI [1]: 3.41 µM | GI50 [2]: 3.51 µM | LC50 [2]: 45.7 µM | TGI [2]: 8.4 µM | GI50 [3]: 1.87 µM | TGI [3]: 5.72 µM | CC50 [3, 34]: 23.7 µM | GI50 [4]: 11.3 µM | LC50 (50% lethal concentration) [4]: 79 µM | TGI [4]: 29.8 µM | GI50 [5]: 0.716 µM | LC50 [5]: 53.7 µM | TGI [5]: 7.93 µM | IC50 [6]: < 1 µM | GI50 [7]: < 0.01 µM | TGI [7]: 2.72 µM | CC50 [7, 34]: 14 µM | GI50 [8]: 2.95 µM | TGI [8]: 8.1 µM | CC50 [8, 34]: 42.2 µM | GI50 [9]: 1.86 µM | TGI [9]: 4.09 µM | CC50 [9, 34]: 9 µM | GI50 [10]: 6.8 µM | TGI [10]: 27 µM | CC50 [10, 34]: 90.7 µM | GI50 [11]: 1.7 µM | TGI [11]: 3.41 µM | CC50 [11, 34]: 6.84 µM | GI50 [12]: 5.58 µM | LC50 [12]: 55.2 µM | TGI [12]: 20.7 µM | GI50 [13]: 2.36 µM | TGI [13]: 5.38 µM | CC50 [13, 34]: 16.9 µM | GI50 [14]: 1.88 µM | TGI [14]: 4.4 µM | CC50 [14, 34]: 10.8 µM | GI50 [15]: 3.07 µM | LC50 [15]: 42.2 µM | TGI [15]: 15.7 µM | GI50 [16]: 4.17 µM | TGI [16]: 18.3 µM | CC50 [16, 34]: 61.5 µM | GI50 [17]: 4.2 µM | TGI [17]: 15.7 µM | CC50 [17, 34]: 39.6 µM | GI50 [18]: 3.51 µM | LC50 (concentration giving 50% net cell kill) [18]: 41.5 µM | TGI [18]: 13.2 µM | GI50 [19]: 9.72 µM | LC50 [19]: 46.3 µM | TGI [19]: 21.4 µM | GI50 [20]: 2.1 µM | LC50 (concentration giving 50% net cell kill) [20]: 9.84 µM | TGI [20]: 4.54 µM | GI50 [21]: 2.96 µM | TGI [21]: 9.9 µM | CC50 [21, 34]: > 100 µM | GI50 [22]: 2.28 µM | LC50 [22]: 15.3 µM | TGI [22]: 5.16 µM | GI50 [23]: 4.28 µM | LC50 [23]: 40.1 µM | TGI [23]: 14.7 µM | GI50 [24]: 1.35 µM | TGI [24]: 3.2 µM | CC50 [24, 34]: 7.58 µM | GI50 [25]: 1.72 µM | TGI [25]: 3.1 µM | CC50 [25, 34]: 5.59 µM | GI50 [26]: 2 µM | TGI [26]: 5.05 µM | CC50 [26, 34]: 19.8 µM | GI50 [27]: 1.95 µM | LC50 (concentration killing 50% of cells) [27]: 8.99 µM | TGI [27]: 4.19 µM | GI50 [28]: 5.66 µM | LC50 [28]: 42.5 µM | TGI [28]: 18.1 µM | GI50 [29]: 1.93 µM | TGI [29]: 5.75 µM | CC50 [29, 34]: 40.6 µM | GI50 [30]: 7.99 µM | LC50 (concentration killing 50% of cells) [30]: 54.2 µM | TGI [30]: 22.5 µM | GI50 [31]: 5.73 µM | TGI [31]: 23.1 µM | CC50 [31, 34]: 77.2 µM | GI50 [32]: 3.53 µM | LC50 [32]: 35 µM | TGI [32]: 11 µM | GI50 [33]: 3.2 µM | TGI [33]: 9.85 µM | CC50 [33, 34]: 50 µM
